# pEC50: −log10 of the molar value.
# Legend:
# Format in all cases: binding
# OR35a = molecular target: T1, OR35a (Drosophila melanogaster, UniProt Q9V3Q2); assay: EIS sensor, Or35a liposomes on gold electrode (Example 1); settings: Or35a liposomes, EIS
# T1 sequence (Q9V3Q2 1-409): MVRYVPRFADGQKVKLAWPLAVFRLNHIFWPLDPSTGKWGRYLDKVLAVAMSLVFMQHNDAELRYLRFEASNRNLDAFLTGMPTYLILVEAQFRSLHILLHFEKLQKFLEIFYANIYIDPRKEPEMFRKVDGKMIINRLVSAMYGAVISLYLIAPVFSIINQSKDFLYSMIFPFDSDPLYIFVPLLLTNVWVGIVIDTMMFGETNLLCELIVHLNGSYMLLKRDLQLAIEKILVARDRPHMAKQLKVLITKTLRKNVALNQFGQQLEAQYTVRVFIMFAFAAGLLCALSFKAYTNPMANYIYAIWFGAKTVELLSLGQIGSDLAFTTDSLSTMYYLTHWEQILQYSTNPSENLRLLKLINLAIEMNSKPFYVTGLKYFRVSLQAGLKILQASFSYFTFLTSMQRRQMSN
# Protocol: (§1) Liposomes were prepared using a phospholipid solution produced by evaporating solutions containing: phosphatidylethanolamine (PE), phosphatidylserine (PS), phosphatidylcholine (PC), and cholesterol (CH) at a molar ratio of 5:3:3:1 in a small glass tube under a stream of N2 gas, then desiccating under vacuum for 1 h. […] To promote the formation of liposomes, 10 freeze/thaw steps were performed by transferring the tube from liquid nitrogen to a 40° C. water bath. Liposomes were then sized by passing the lipid solution 11 times through a 100-nm polycarbonate membrane using an Avestin LiposoFAST extruder unit (Avestin, Germany). Glycerol was added at 10% of the final volume and aliquots at 10 mg/mL were snap frozen in liquid nitrogen and stored at -80° C. Prior to their use, liposomes were defrosted on ice and then destabilized by incubating with 0.2% CHAPS for 15 min at room temperature. Then 200 μg of purified odorant receptor^14 was added to 1 mg of liposomes and rotated at 10 rpm for 1 h at room temperature. […] The Bio-Beads were removed after each incubation period. The OR integrated liposomes were pelleted by centrifugation at 100,000 g for 1 h, and were resuspended in 500 μL of rehydration buffer. Integration of OrXs into liposomes was assessed by density gradient ultracentrifugation (DGU) using Accudenz (Accurate Chemical & Scientific Corporation, USA). […] The sample was then centrifuged at 100,000 g for 4 h at 4° C. Liposomes will float to the top of the gradient after Accudenz DGU due to their low density. 1.3 Electrode Cleaning Gold disk (2 mm) electrodes were cleaned with polishing with Alumina paste for 2 minutes, ultra-sonicated in pure ethanol and then Milli-Q water for 5 minutes each. […] Charge transfer resistance (Rct) of electrodes were calculated by fitting obtained data to a Randles' equivalent circuit [Rs+CPE/(Rct+W)] comprising of a solution resistance (Rs) in series with a constant phase element (CPE) and in parallel with charge transfer resistance (Rct) and Warburg diffusion element. […]
# Or10a = molecular target: T2, Or10a (Drosophila melanogaster, UniProt Q9VYZ1); assay: EIS sensor, Or10a liposomes on gold electrode (Example 1); settings: Or10a liposomes, EIS
# T2 sequence (Q9VYZ1 1-406): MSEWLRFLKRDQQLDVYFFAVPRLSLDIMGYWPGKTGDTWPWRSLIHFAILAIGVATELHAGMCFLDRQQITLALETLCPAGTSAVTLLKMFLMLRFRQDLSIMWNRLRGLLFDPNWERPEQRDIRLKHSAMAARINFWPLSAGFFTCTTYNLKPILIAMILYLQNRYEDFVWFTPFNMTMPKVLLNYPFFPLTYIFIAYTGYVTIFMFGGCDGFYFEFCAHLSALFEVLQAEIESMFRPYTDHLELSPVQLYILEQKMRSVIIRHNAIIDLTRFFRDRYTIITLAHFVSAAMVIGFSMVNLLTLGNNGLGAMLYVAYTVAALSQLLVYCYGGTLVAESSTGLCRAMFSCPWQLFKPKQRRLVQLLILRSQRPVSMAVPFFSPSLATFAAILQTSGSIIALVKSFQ
# Protocol: as §1
# OR71a = molecular target: T3, OR71a (Drosophila melanogaster, UniProt Q9VUK5); assay: EIS sensor, Or71a liposomes on gold electrode, optimized conditions (Example 5)
# T3 sequence (Q9VUK5 1-378): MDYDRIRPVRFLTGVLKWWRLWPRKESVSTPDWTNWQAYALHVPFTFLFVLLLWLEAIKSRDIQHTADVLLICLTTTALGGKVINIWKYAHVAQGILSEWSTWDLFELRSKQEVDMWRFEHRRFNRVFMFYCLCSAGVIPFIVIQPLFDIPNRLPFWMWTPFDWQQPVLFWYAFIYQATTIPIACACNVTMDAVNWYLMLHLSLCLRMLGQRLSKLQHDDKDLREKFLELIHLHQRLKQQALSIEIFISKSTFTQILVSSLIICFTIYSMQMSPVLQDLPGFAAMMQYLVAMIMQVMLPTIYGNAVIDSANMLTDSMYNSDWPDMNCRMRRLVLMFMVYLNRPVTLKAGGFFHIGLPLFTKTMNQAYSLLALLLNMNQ
pEC50 (Or10a),Sensitivity limit (lowest detectable concentration) (Or10a; signal/noise >3),EIS response to control ligand (OR71a),SMILES,pEC50 (OR35a),Sensitivity limit (lowest detectable concentration) (OR35a; signal/noise >3)
,,,CCC/C=C/C=O [E2-hexenal],~8.00,36 pM
~9.00,330 pM,do not respond,COC(=O)c1ccccc1O [methyl salicylate],,
